Measurements: ChEMBL document CHEMBL1124489, “Synthesis and thromboxane synthetase inhibitory activity of di- or tetrahydrobenzo[b]thiophenecarboxylic acid derivatives” (J Med Chem, 1989)
pIC50: −log10 of the molar value.

Key:
[1] = tested on: Oryctolagus cuniculus; experiment: Protection against sodium arachidonate induced sudden death in rabbit, 1 hr after peroral administration; type: functional; details: po
[2] = molecular target: T1, Thromboxane-A synthase (Rattus norvegicus) (UniProt P49430); details: Serum
T1 sequence (whole entry): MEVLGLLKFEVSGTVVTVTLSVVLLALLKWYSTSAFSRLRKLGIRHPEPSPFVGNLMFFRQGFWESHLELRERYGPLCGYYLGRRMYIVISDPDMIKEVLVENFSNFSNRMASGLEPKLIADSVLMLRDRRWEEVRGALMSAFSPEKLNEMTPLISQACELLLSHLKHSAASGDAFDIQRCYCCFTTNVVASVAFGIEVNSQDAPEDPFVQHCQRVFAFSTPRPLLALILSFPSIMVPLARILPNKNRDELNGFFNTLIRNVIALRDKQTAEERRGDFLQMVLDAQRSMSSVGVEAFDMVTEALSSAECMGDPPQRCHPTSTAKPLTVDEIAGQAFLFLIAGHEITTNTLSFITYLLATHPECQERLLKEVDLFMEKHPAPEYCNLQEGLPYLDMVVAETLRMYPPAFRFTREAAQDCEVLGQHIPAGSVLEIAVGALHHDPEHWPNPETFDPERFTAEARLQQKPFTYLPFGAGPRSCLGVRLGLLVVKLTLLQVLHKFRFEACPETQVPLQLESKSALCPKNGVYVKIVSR

[3] = molecular target: T1, Thromboxane-A synthase (Rattus norvegicus); experiment: Inhibition of rat serum thromboxane A2 synthetase after 2 hr of oral administration of compound
[4] = molecular target: T2, Thromboxane-A synthase (Homo sapiens, UniProt P24557); experiment: Inhibition of platelet microsomal thromboxane A synthetase in humans
T2 sequence (P24557 whole entry): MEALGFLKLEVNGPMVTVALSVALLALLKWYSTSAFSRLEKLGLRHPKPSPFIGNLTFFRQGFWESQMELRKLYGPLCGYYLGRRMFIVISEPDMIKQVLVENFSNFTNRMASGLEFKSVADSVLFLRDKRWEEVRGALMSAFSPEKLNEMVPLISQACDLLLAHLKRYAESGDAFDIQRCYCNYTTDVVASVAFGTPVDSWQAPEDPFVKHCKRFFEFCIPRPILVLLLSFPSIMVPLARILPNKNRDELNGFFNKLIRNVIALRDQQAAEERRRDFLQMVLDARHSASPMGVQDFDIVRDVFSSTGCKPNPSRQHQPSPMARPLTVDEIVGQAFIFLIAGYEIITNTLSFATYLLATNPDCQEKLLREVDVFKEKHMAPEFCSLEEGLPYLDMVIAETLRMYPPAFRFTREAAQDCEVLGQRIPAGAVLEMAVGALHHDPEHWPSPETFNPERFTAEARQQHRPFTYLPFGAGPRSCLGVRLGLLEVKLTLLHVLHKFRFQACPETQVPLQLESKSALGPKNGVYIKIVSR

[5] = molecular target: Thromboxane-A synthase (Oryctolagus cuniculus); experiment: Inhibition of thromboxane A2 synthetase

Structure (SMILES)	ED50 [1] [µmol/kg]	ID50 [2] [µmol/kg]	ID50 [3] [µmol/kg]	pIC50 [4]	pIC50 [5]
O=C(O)c1ccc(OCCn2ccnc2)cc1 [DAZOXIBEN]	3.17	0.468			
O=C(O)C1CCc2cc(Cn3ccnc3)sc2C1 (centres undefined)	0.9		0.027	7.70	7.59
O=C(O)C1=Cc2sc(Cn3ccnc3)cc2CC1 [IMITRODAST]	0.43		0.064	8.22	
